A short description of this data set: In vitro electrode-salicylic acid compatibility (color change of test solution). The settings on record: for Solution color change: 1.5% salicylic acid in 50% ethanol/50% water, cathode Platinum. The data set is classed as physicochemical. The procedure: The following experiment was conducted to determine the compatibility of electrodes with salicylic acid. A pair of test electrodes was immersed in 5 ml of 1.5% salicylic acid solution (solvent 50% ethanol/50% water). A pre-determined voltage was applied to the electrodes (by connecting the electrodes to a battery or batteries) for certain length of time as indicated in Table 3. Observations were made on color change of the test solution.

With `O=C(O)c1ccccc1O` [salicylic acid], the Solution color change entry runs as follows: (anode Platinum, 3 V, 10 min) “Colorless → yellow”; (anode Platinum, 9 V, 10 min) “Colorless → brown”; (anode Zinc, 1.5 V, 10 min) “No color change”; (anode Zinc, 3 V, 10 min) “No color change”; (anode Zinc, 9 V, 30 min) “No color change”. For the same compound, the “Discoloration of the solution (compatibility with salicylic acid)” value (platinum anode) is on record as “resulted in discoloration” and the “Discoloration of the solution (compatibility with salicylic acid)” value (zinc anode, during passage of electric current) was “no discoloration”.

The record behind these values is patent US20060253078A1, “Method of treating skin disorders with stratum corneum piercing device” (priority 2005, published 2006).
